Experimental data taken from ChEMBL document CHEMBL5715949, “Discovery of a selective irreversible BMX inhibitor for prostate cancer” (ACS Chem Biol, 2013).
Active and inactive are the calls of the source. The rule behind the calls is not given here.

Experiments:
[1] = system: Receptor-type tyrosine-protein kinase FLT3 (Homo sapiens), P36888 [UNDEFINED MUTATION]; experiment: Inhibition of FLT3 ITD mutant (unknown origin) assessed as remaining activity at 1 uM by Kinome scan method relative to control
Sequence of Receptor-type tyrosine-protein kinase FLT3 (Homo sapiens), P36888 [UNDEFINED MUTATION] (P36888 whole entry, looked up, stated change not applied): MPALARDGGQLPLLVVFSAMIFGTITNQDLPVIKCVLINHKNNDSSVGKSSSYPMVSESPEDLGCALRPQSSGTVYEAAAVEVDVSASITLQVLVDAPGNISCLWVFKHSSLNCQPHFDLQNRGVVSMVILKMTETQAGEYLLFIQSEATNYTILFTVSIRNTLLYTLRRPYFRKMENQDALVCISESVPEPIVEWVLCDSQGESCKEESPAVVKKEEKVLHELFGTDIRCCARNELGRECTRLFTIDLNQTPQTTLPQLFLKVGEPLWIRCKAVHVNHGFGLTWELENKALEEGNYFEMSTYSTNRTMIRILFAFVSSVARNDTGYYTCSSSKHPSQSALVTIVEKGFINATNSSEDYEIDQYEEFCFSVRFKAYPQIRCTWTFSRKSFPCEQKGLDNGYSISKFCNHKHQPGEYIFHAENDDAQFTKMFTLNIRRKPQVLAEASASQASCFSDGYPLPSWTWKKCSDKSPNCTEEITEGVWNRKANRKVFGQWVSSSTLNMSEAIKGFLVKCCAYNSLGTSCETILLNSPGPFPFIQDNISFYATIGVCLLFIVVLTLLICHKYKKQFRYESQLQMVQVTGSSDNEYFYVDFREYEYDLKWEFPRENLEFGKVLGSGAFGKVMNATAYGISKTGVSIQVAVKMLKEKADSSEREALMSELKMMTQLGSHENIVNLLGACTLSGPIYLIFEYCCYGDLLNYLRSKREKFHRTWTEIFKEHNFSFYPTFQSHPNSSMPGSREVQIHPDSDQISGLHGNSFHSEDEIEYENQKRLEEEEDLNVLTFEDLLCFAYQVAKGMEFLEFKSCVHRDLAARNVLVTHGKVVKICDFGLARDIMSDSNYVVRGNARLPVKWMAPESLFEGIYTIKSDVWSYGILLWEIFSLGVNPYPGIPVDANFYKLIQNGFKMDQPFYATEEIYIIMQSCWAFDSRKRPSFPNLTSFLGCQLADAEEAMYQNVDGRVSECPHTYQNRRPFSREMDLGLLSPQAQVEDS

[2] = system: Tyrosine-protein kinase ABL1 (Homo sapiens), P00519 [E255K]; experiment: Inhibition of phosphorylated ABL1 E255K mutant (unknown origin) assessed as remaining activity at 1 uM by Kinome scan method relative to control
[3] = system: Mast/stem cell growth factor receptor Kit (Homo sapiens), P10721 [V559D]; experiment: Inhibition of KIT V559D mutant (unknown origin) assessed as remaining activity at 1 uM by Kinome scan method relative to control
[4] = system: Fibroblast growth factor receptor 3 (Homo sapiens), P22607 [G697C]; experiment: Inhibition of FGFR3 G697C mutant (unknown origin) assessed as remaining activity at 1 uM by Kinome scan method relative to control
[5] = target: Fibroblast growth factor receptor 2 (Homo sapiens) (UniProt P21802); experiment: Inhibition of FGFR2 (unknown origin) assessed as remaining activity at 1 uM by Kinome scan method relative to control
[6] = target: Receptor tyrosine-protein kinase erbB-4 (Homo sapiens) (UniProt Q15303); experiment: Inhibition of ERBB4 (unknown origin) assessed as remaining activity at 1 uM by Kinome scan method relative to control
[7] = target: Serine/threonine-protein kinase D2 (Homo sapiens) (UniProt Q9BZL6); experiment: Inhibition of PRKD2 (unknown origin) assessed as remaining activity at 1 uM by Kinome scan method relative to control
RV-1 [8] = experiment: Induction of apoptosis in human RV-1 cells assessed as decrease in number of cell at 5 uM incubated for 3 days by Hoechst 33342 staining based analysis; assay type: functional; settings: time 3.0 day
[9] = target: Serine/threonine-protein kinase SBK1 (Homo sapiens) (UniProt Q52WX2); experiment: Inhibition of SBK1 (unknown origin) assessed as remaining activity at 1 uM by Kinome scan method relative to control
[10] = Inhibition of PI3K/AKT/mTOR signalling pathway in human RV-1 cells assessed as decrease in 4EBP phosphorylation at T37/46 residue at 2.5 uM incubated for 5 days by immunoblot analysis; assay type: cell-based; settings: time 5.0 day
[11] = target: Dual specificity mitogen-activated protein kinase kinase 7 (Homo sapiens) (UniProt O14733); experiment: Inhibition of MKK7 (unknown origin) assessed as remaining activity at 1 uM by Kinome scan method relative to control
Sequence of Dual specificity mitogen-activated protein kinase kinase 7 (Homo sapiens) (O14733 whole entry): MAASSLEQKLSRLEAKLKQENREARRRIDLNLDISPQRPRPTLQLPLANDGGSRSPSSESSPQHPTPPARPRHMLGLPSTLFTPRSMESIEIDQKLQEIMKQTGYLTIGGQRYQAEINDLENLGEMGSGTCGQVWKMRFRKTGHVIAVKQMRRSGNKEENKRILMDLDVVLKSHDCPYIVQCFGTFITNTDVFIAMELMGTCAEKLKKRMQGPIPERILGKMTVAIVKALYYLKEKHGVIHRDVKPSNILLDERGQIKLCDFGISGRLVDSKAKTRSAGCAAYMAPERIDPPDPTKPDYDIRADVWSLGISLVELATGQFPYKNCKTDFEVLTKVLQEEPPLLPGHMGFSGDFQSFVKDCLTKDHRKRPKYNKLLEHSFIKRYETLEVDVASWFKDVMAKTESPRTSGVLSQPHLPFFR

RV-1 [12] = experiment: Down regulation of BMX protein expression in human RV-1 cells expressing BMX C496S mutant at 5 uM incubated for 72 hrs by western blot analysis; assay type: functional, cell-based
RV-1 [13] = experiment: Antiproliferative activity against human RV-1 cells assessed as reduction in cell viability at 500 to 2500 nM incubated for 5 days in presence of Torin2 by CellTiter-Glo assay; assay type: functional, cell-based; settings: dose 500-2500 nM, time 5.0 day
[14] = target: Serine/threonine-protein kinase TAO2 (Homo sapiens) (UniProt Q9UL54); experiment: Inhibition of TAOK2 (unknown origin) assessed as remaining activity at 1 uM by Kinome scan method relative to control
[15] = target: Serine/threonine-protein kinase RIO1 (Homo sapiens) (UniProt Q9BRS2); experiment: Inhibition of RIOK1 (unknown origin) assessed as remaining activity at 1 uM by Kinome scan method relative to control
Sequence of Serine/threonine-protein kinase RIO1 (Homo sapiens) (Q9BRS2 whole entry): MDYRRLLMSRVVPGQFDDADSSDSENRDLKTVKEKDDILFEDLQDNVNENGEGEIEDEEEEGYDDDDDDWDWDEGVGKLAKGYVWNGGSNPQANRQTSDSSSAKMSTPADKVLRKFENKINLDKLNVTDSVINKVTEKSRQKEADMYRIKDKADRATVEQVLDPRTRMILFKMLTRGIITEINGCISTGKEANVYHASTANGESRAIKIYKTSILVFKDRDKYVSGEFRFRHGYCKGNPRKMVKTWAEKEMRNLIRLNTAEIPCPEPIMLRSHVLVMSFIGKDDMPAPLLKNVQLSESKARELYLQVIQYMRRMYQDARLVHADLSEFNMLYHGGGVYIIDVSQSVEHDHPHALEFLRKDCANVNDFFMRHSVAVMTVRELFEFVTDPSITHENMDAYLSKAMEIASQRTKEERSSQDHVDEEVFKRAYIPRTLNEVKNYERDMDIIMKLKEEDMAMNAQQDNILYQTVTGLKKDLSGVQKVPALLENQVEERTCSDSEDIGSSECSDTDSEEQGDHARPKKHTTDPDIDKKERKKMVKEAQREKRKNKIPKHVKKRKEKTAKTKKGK

[16] = target: Activin receptor type-2A (Homo sapiens) (UniProt P27037); experiment: Inhibition of ACVR2A (unknown origin) assessed as remaining activity at 1 uM by Kinome scan method relative to control
[17] = target: Mitogen-activated protein kinase 12 (Homo sapiens) (UniProt P53778); experiment: Inhibition of P38gamma (unknown origin) assessed as remaining activity at 1 uM by Kinome scan method relative to control
Sequence of Mitogen-activated protein kinase 12 (Homo sapiens) (P53778 whole entry): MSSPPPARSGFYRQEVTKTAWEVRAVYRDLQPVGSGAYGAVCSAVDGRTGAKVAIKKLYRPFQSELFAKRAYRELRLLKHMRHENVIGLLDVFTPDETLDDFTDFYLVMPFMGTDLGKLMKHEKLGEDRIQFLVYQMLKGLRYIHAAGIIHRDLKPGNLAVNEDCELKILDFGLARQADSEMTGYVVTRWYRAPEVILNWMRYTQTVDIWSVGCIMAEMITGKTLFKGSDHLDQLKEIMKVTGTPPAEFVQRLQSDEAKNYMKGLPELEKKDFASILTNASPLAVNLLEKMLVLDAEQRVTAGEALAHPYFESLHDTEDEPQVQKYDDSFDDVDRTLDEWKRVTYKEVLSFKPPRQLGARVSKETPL

[18] = target: Proto-oncogene tyrosine-protein kinase ROS (Homo sapiens) (UniProt P08922); experiment: Inhibition of ROS1 (unknown origin) assessed as remaining activity at 1 uM by Kinome scan method relative to control
Sequence of Proto-oncogene tyrosine-protein kinase ROS (Homo sapiens) (P08922 whole entry): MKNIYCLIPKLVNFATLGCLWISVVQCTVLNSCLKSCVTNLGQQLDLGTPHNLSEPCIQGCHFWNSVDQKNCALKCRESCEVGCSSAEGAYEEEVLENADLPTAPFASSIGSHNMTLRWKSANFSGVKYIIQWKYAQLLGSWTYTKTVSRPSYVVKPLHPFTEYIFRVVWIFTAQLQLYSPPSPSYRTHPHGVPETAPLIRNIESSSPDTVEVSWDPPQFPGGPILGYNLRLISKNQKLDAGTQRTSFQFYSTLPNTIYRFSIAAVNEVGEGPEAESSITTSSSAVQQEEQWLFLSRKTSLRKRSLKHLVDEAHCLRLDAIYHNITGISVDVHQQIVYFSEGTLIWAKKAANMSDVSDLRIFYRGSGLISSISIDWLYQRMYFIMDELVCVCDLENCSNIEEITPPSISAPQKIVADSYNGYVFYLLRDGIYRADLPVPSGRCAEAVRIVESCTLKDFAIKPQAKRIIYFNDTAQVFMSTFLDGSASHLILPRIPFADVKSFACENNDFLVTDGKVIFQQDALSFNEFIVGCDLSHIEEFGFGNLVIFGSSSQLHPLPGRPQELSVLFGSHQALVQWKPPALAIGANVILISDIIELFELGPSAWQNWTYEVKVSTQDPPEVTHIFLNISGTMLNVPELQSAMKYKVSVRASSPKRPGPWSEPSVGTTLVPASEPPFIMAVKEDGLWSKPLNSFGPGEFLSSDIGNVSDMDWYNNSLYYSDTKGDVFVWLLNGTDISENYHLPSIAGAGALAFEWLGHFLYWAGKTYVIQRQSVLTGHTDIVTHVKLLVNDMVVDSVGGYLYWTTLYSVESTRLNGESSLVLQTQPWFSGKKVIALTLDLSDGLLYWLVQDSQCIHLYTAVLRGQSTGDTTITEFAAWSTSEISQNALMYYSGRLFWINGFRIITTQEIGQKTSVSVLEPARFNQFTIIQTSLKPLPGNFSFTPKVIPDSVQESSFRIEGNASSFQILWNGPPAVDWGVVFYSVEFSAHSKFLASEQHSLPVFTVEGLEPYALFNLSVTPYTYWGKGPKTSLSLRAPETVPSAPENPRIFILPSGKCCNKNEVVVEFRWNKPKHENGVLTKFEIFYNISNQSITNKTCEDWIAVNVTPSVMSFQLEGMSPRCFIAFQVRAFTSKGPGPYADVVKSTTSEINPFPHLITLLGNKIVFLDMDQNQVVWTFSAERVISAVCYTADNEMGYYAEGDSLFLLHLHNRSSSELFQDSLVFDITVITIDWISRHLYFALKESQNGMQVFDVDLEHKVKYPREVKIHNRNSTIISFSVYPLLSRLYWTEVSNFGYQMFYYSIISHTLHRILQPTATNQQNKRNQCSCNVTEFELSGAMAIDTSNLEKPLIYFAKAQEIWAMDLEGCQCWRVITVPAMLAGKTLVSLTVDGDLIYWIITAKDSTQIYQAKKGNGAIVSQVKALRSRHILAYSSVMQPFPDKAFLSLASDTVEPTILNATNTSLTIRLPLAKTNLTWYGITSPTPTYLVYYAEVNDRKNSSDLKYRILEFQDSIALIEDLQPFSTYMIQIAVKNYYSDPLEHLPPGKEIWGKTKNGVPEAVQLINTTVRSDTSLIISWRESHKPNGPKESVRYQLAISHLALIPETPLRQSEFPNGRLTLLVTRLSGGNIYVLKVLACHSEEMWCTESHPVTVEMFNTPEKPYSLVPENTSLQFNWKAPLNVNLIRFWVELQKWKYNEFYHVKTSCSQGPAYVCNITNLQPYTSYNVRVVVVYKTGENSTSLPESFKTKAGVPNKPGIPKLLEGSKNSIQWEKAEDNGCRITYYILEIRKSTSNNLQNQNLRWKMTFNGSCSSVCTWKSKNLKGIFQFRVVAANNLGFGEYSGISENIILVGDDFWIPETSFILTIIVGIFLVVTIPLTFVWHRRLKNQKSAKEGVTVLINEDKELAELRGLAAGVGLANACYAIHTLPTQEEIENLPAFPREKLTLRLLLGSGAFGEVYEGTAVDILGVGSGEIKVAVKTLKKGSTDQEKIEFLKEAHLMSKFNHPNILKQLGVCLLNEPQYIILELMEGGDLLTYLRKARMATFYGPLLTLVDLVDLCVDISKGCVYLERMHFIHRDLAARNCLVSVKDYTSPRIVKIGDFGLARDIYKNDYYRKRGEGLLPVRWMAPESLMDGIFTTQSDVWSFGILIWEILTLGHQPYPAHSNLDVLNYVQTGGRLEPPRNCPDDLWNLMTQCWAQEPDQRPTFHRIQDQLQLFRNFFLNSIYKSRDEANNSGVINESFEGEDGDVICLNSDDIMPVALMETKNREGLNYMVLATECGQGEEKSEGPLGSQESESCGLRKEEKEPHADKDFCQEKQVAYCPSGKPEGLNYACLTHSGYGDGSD

[19] = system: Hepatocyte growth factor receptor (Homo sapiens), P08581 [M1250T]; experiment: Inhibition of MET M1250T mutant (unknown origin) assessed as remaining activity at 1 uM by Kinome scan method relative to control
BaF3 [20] = experiment: Antiproliferative activity against mouse BaF3 cells expressing TEL-fused TYK2 […] mutant assessed growth inhibition incubated for 2 to 5 days by CellTiter-Glo assay; assay type: functional; settings: time 2-5 day
[21] = target: Phosphatidylinositol 4,5-bisphosphate 3-kinase catalytic subunit beta isoform (Homo sapiens) (UniProt P42338); experiment: Inhibition of PIK3CB (unknown origin) assessed as remaining activity at 1 uM by Kinome scan method relative to control
[22] = target: Aurora kinase A (Homo sapiens) (UniProt O14965); experiment: Inhibition of AURKA (unknown origin) assessed as remaining activity at 1 uM by Kinome scan method relative to control
Sequence of Aurora kinase A (Homo sapiens) (O14965 whole entry): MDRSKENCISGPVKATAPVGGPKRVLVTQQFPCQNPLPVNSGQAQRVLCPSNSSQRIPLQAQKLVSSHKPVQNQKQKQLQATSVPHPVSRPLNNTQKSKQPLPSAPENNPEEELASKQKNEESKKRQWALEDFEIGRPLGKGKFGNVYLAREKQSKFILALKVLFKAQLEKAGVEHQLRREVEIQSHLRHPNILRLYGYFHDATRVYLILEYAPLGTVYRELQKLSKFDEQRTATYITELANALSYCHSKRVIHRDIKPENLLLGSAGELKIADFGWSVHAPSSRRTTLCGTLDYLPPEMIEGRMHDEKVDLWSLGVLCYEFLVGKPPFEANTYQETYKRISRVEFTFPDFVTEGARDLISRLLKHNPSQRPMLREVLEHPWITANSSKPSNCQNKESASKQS

[23] = target: Platelet-derived growth factor receptor beta (Homo sapiens) (UniProt P09619); experiment: Inhibition of PDGFRbeta (unknown origin) assessed as remaining activity at 1 uM by Kinome scan method relative to control
[24] = target: Mitogen-activated protein kinase kinase kinase 12 (Homo sapiens) (UniProt Q12852); experiment: Inhibition of DLK (unknown origin) assessed as remaining activity at 1 uM by Kinome scan method relative to control
[25] = target: STE20/SPS1-related proline-alanine-rich protein kinase (Homo sapiens) (UniProt Q9UEW8); experiment: Inhibition of STK39 (unknown origin) assessed as remaining activity at 1 uM by Kinome scan method relative to control
[26] = Down regulation of BMX protein expression in human RV-1 cells expressing wild type BMX assessed protein expression level at 2.5 uM pre incubated for 4 hrs followed by compound wash out and additon of CHX and measured after 16 hrs by immunoblot analysis (reference value: 0.98 to 1.01); assay type: functional
[27] = target: Cytoplasmic tyrosine-protein kinase BMX (Homo sapiens, UniProt P51813); experiment: Inhibition of Flag-tagged BMX (unknown origin) expressed in HEK293T cells pre incubated for 30 mins followed by ATP addition and measured after 20 mins by immunoprecipitate assay; assay type: cell-based
[28] = target: Phosphatidylinositol 4,5-bisphosphate 3-kinase catalytic subunit gamma isoform (Homo sapiens) (UniProt P48736); experiment: Inhibition of PIK3CG (unknown origin) assessed as remaining activity at 1 uM by Kinome scan method relative to control
[29] = Induction of cell cycle arrest in human RV-1 cells assessed as accumulation of cells at S phase at 2.5 uM incubated for 5 days by propidium iodide staining based flow cytometric analysis (reference value: 28.9 %); assay type: functional; settings: time 5 day
BaF3 [30] = experiment: Antiproliferative activity against mouse BaF3 cells expressing TEL-fused BMX Cys496Ser assessed growth inhibition incubated for 2 to 5 days by CellTiter-Glo assay; assay type: functional, cell-based
[31] = target: Tyrosine-protein kinase Fgr (Homo sapiens) (UniProt P09769); experiment: Inhibition of FGR (unknown origin) assessed as remaining activity at 1 uM by Kinome scan method relative to control

C=CC(=O)Nc1cc(-n2c(=O)ccc3cnc4ccc(-c5ccc(NS(C)(=O)=O)cc5)cc4c32)ccc1C
Activity [1]: 99%
Activity [2]: 63%
Activity [3]: 87%
Activity [4]: 26%
Activity [5]: 96%
Activity [6]: 78%
Activity [7]: 87%
Activity (RV-1 [8]): Active
Activity [9]: 4.6%
inhibition [10]: Active
Activity [11]: 49%
Activity (RV-1 [12]): Active
Activity (RV-1 [13]): Active
Activity [14]: 80%
Activity [15]: 20%
Activity [16]: 94%
Activity [17]: 72%
Activity [18]: 81%
Activity [19]: 80%
GI50 (BaF3 [20]): 6.09 µM
Activity [21]: 75%
Activity [22]: 75%
Activity [23]: 76%
Activity [24]: 70%
Activity [25]: 68%
Activity [26]: 0.28
IC50 [27]: 0.138 µM
Activity [28]: 2.8%
Activity [29]: 20.6%
IC50 (BaF3 [30]): > 10 µM
Activity [31]: 72%
